Measurements published in patent US11091490B2, “3-amino-1,5-dihydro-pyrazolo[3,4-d]pyrimidin-4-ones as cyclin dependent kinase inhibitors” (Oncotyrol Center for Personalized Cancer Medicine GMBH, priority 2016, dated 2021).

Tests used:
[1] = tested on: DU145 (prostate); assay: In vitro proliferation screening (Sulforhodamin B) DU145; assay type: cell-based; settings: Homo sapiens, DU-145; DU145, 72 h; unit M
Text: In order to evaluate the antitumor activity of the compounds of the present invention, in particular compound 86, in solid tumors, an in vitro proliferation screening in a panel of 10 different human cancer cell lines derived from solid tumors (see Table 5, below) as a model system.
Six 10-fold dilutions of compound 86 have been prepared in DMSO, from 5×10^−9 M to 5×10^−4. Single data points have been tested for each concentration. The final concentration of DMSO was 0.1%. The duration of the treatment was 72 hours. The growth inhibition was measured by using Sulforhodamin B, a protein-staining assay in accordance with Vichai V et. al. Nat. Protoc. 2006; 1(3):1112-6. Activity of the agents was determined by evaluating the following parameters: IC50, GI50, IC10, GI10, TGI, LC50, IC90 and GI90 (if these values could be calculated).

[2] = target: T1, CDK7 (Homo sapiens, UniProt P50613); assay: Target selectivity profile (DiscoverX KinomeScan) CDK7; assay type: binding
T1 construct: purchased DiscoverX
T1 sequence (P50613 whole entry): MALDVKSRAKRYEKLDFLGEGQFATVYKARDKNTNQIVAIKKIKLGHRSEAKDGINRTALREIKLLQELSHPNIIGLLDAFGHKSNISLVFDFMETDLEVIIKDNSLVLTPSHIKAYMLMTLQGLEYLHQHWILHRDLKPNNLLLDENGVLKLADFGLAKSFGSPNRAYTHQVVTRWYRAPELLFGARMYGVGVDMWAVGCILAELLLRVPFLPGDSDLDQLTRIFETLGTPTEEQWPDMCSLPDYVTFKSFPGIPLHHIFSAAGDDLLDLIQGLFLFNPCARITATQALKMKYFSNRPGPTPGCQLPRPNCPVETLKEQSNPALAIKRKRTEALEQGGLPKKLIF
Text: 3. Target Selectivity Profile (DiscoverX KinomeScan)
According to an analysis of kinase inhibitory selectivity carried out in accordance with Karaman M W et al., Nat Biotechnol. 2008 January; 26(1):127-32. doi: 10.1038/nbt1358.

With CCN(CC)CC(=O)Nc1ccc(Cc2nc3c(c(N(C)C)nn3-c3c(Cl)cc(S(N)(=O)=O)cc3Cl)c(=O)[nH]2)cc1 [Compound 86, N-{4-[1-(2,6-Dichloro-4-sulfamoyl-phenyl)-3-dimethylamino-4-oxo-4,5-dihydro-1H-pyrazolo[3,4-d]pyrimidin-6-ylmethyl]-phenyl}-2-diethylamino-acetamide] the GI50 [1] was 32.4 nM, the IC50 [1] was 37.3 nM and the “kinase inhibitory selectivity: CDK7” value [2] was “active as inhibitors”.
